Measurements taken from US10251395B2, “Substituted furano-/thienocycloalkylamino-2-pyrimidine derivatives and use thereof for controlling undesired plant growth” (Bayer CropScience Aktiengesellschaft, priority 2015, dated 2019).

What was measured:
Assay type in all cases: in vivo
Abutilon theophrasti [1] = test: Post-emergence herbicidal effect; details: assessed visually after about 3 weeks vs untreated controls
Method in brief: (§1)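 Greenhouse weeds grown in sandy loam were sprayed at the one-leaf stage, 2–3 weeks after sowing, with WP or EC formulations in 600–800 L/ha water plus 0.2% wetting agent. Damage was scored visually after about 3 weeks as percent activity relative to untreated controls, where 100% means the plants died.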

Viola tricolor [2] = test: Post-emergence herbicidal effect; details: assessed visually after about 3 weeks vs untreated controls
Method in brief: as §1

Stellaria media [3] = test: Post-emergence herbicidal effect; details: assessed visually after about 3 weeks vs untreated controls
Method in brief: as §1

Alopecurus myosuroides [4] = test: Pre-emergence herbicidal effect; details: scored visually after 3 weeks
Method in brief: (§2)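 Visual damage score in % after 3 weeks in the greenhouse, relative to untreated controls (0% like control, 100% plants dead). Compounds were sprayed pre-emergence onto covering soil over seeds sown in sandy loam, as WP or EC in water at 600 to 800 L/ha plus 0.2% wetting agent.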

Ipomoea purpurea [5] = test: Pre-emergence herbicidal effect; details: scored visually after 3 weeks
Method in brief: as §2

Setaria viridis [6] = test: Pre-emergence herbicidal effect; details: scored visually after 3 weeks
Method in brief: as §2

Abutilon theophrasti [7] = test: Pre-emergence herbicidal effect; details: scored visually after 3 weeks
Method in brief: as §2

Echinochloa crus-galli [8] = test: Pre-emergence herbicidal effect; details: scored visually after 3 weeks
Method in brief: as §2

Polygonum convolvulus [9] = test: Pre-emergence herbicidal effect; details: scored visually after 3 weeks
Method in brief: as §2

Amaranthus retroflexus [10] = test: Pre-emergence herbicidal effect; details: scored visually after 3 weeks
Method in brief: as §2

Matricaria inodora [11] = test: Pre-emergence herbicidal effect; details: scored visually after 3 weeks
Method in brief: as §2

Stellaria media [12] = test: Pre-emergence herbicidal effect; details: scored visually after 3 weeks
Method in brief: as §2

Setaria viridis [13] = test: Post-emergence herbicidal effect; details: assessed visually after about 3 weeks vs untreated controls
Method in brief: as §1

Amaranthus retroflexus [14] = test: Post-emergence herbicidal effect; details: assessed visually after about 3 weeks vs untreated controls
Method in brief: as §1

Veronica persica [15] = test: Post-emergence herbicidal effect; details: assessed visually after about 3 weeks vs untreated controls
Method in brief: as §1

Cyperus esculentus = test: Pre-emergence herbicidal effect; details: scored visually after 3 weeks
Method in brief: as §2

Viola tricolor [16] = test: Pre-emergence herbicidal effect; details: scored visually after 3 weeks
Method in brief: as §2

Veronica persica [17] = test: Pre-emergence herbicidal effect; details: scored visually after 3 weeks
Method in brief: as §2

Alopecurus myosuroides [18] = test: Post-emergence herbicidal effect; details: 320 g/ha, assessed visually after about 3 weeks vs untreated controls
Method in brief: as §1

Ipomoea purpurea [19] = test: Post-emergence herbicidal effect; details: assessed visually after about 3 weeks vs untreated controls
Method in brief: as §1

Lolium multiflorum = test: Post-emergence herbicidal effect; details: 320 g/ha, assessed visually after about 3 weeks vs untreated controls
Method in brief: as §1

Echinochloa crus-galli [20] = test: Post-emergence herbicidal effect; details: assessed visually after about 3 weeks vs untreated controls
Method in brief: as §1

Polygonum convolvulus [21] = test: Post-emergence herbicidal effect; details: assessed visually after about 3 weeks vs untreated controls
Method in brief: as §1

Matricaria inodora [22] = test: Post-emergence herbicidal effect; details: 320 g/ha, assessed visually after about 3 weeks vs untreated controls
Method in brief: as §1

Avena fatua = test: Pre-emergence herbicidal effect; details: Dosage 320 g/ha, scored visually after 3 weeks
Method in brief: as §2

Cc1cc2c(s1)CCCC2Nc1nc(N)c(-c2cccc(F)c2)c(C(F)F)n1 (racemic) [compound 302]
post-emergence efficacy ABUTH (Abutilon theophrasti [1]; 320 g/ha): 60% | post-emergence efficacy VIOTR (Viola tricolor [2]; 80 g/ha): 90% | post-emergence efficacy VIOTR (Viola tricolor [2]; 320 g/ha): 90% | post-emergence efficacy STEME (Stellaria media [3]; 320 g/ha): 80% | ALOMY pre-emergence efficacy (herbicidal activity) (Alopecurus myosuroides [4]; Dosage 320 g/ha): 70% | PHBPU pre-emergence efficacy (herbicidal activity) (Ipomoea purpurea [5]; Dosage 80 g/ha): 60% | PHBPU pre-emergence efficacy (herbicidal activity) (Ipomoea purpurea [5]; Dosage 320 g/ha): 80% | SETVI pre-emergence efficacy (herbicidal activity) (Setaria viridis [6]; Dosage 80 g/ha): 70% | SETVI pre-emergence efficacy (herbicidal activity) (Setaria viridis [6]; Dosage 320 g/ha): 100% | ABUTH pre-emergence efficacy (herbicidal activity) (Abutilon theophrasti [7]; Dosage 320 g/ha): 80% | ECHCG pre-emergence efficacy (herbicidal activity) (Echinochloa crus-galli [8]; Dosage 320 g/ha): 100% | POLCO pre-emergence efficacy (herbicidal activity) (Polygonum convolvulus [9]; Dosage 80 g/ha): 70% | POLCO pre-emergence efficacy (herbicidal activity) (Polygonum convolvulus [9]; Dosage 320 g/ha): 100% | AMARE pre-emergence efficacy (herbicidal activity) (Amaranthus retroflexus [10]; Dosage 80 g/ha): 100% | AMARE pre-emergence efficacy (herbicidal activity) (Amaranthus retroflexus [10]; Dosage 320 g/ha): 100% | MATIN pre-emergence efficacy (herbicidal activity) (Matricaria inodora [11]; Dosage 80 g/ha): 90% | MATIN pre-emergence efficacy (herbicidal activity) (Matricaria inodora [11]; Dosage 320 g/ha): 100% | STEME pre-emergence efficacy (herbicidal activity) (Stellaria media [12]; Dosage 80 g/ha): 100% | STEME pre-emergence efficacy (herbicidal activity) (Stellaria media [12]; Dosage 320 g/ha): 100%

Cc1cc2c(s1)CCCC2Nc1nc(N)c(S(C)(=O)=O)c(C(F)F)n1 (racemic) [compound 287]
post-emergence efficacy SETVI (Setaria viridis [13]; 320 g/ha): 80% | post-emergence efficacy ABUTH (Abutilon theophrasti [1]; 80 g/ha): 80% | post-emergence efficacy ABUTH (Abutilon theophrasti [1]; 320 g/ha): 80% | post-emergence efficacy VIOTR (Viola tricolor [2]; 80 g/ha): 100% | post-emergence efficacy VIOTR (Viola tricolor [2]; 320 g/ha): 100% | post-emergence efficacy AMARE (Amaranthus retroflexus [14]; 80 g/ha): 90% | post-emergence efficacy AMARE (Amaranthus retroflexus [14]; 320 g/ha): 100% | post-emergence efficacy VERPE (Veronica persica [15]; 80 g/ha): 80% | post-emergence efficacy VERPE (Veronica persica [15]; 320 g/ha): 100% | post-emergence efficacy STEME (Stellaria media [3]; 80 g/ha): 80% | post-emergence efficacy STEME (Stellaria media [3]; 320 g/ha): 100% | PHBPU pre-emergence efficacy (herbicidal activity) (Ipomoea purpurea [5]; Dosage 80 g/ha): 90% | PHBPU pre-emergence efficacy (herbicidal activity) (Ipomoea purpurea [5]; Dosage 320 g/ha): 100% | CYPES pre-emergence efficacy (herbicidal activity) (Cyperus esculentus; Dosage 80 g/ha): 80% | CYPES pre-emergence efficacy (herbicidal activity) (Cyperus esculentus; Dosage 320 g/ha): 100% | VIOTR pre-emergence efficacy (herbicidal activity) (Viola tricolor [16]; Dosage 80 g/ha): 90% | VIOTR pre-emergence efficacy (herbicidal activity) (Viola tricolor [16]; Dosage 320 g/ha): 100% | VERPE pre-emergence efficacy (herbicidal activity) (Veronica persica [17]; Dosage 80 g/ha): 100% | VERPE pre-emergence efficacy (herbicidal activity) (Veronica persica [17]; Dosage 320 g/ha): 100% | MATIN pre-emergence efficacy (herbicidal activity) (Matricaria inodora [11]; Dosage 80 g/ha): 100% | MATIN pre-emergence efficacy (herbicidal activity) (Matricaria inodora [11]; Dosage 320 g/ha): 100% | STEME pre-emergence efficacy (herbicidal activity) (Stellaria media [12]; Dosage 80 g/ha): 90% | STEME pre-emergence efficacy (herbicidal activity) (Stellaria media [12]; Dosage 320 g/ha): 100%

Cc1cc2c(s1)CCCC2Nc1ncc(C(F)(F)F)c(N)n1 (racemic) [compound 61]
post-emergence efficacy ALOMY (Alopecurus myosuroides [18]): 100% | post-emergence efficacy PHBPU (Ipomoea purpurea [19]; 80 g/ha): 90% | post-emergence efficacy PHBPU (Ipomoea purpurea [19]; 320 g/ha): 100% | post-emergence efficacy SETVI (Setaria viridis [13]; 80 g/ha): 80% | post-emergence efficacy SETVI (Setaria viridis [13]; 320 g/ha): 90% | post-emergence efficacy ABUTH (Abutilon theophrasti [1]; 80 g/ha): 90% | post-emergence efficacy ABUTH (Abutilon theophrasti [1]; 320 g/ha): 90% | post-emergence efficacy LOLMU (Lolium multiflorum): 90% | post-emergence efficacy ECHCG (Echinochloa crus-galli [20]; 80 g/ha): 100% | post-emergence efficacy ECHCG (Echinochloa crus-galli [20]; 320 g/ha): 100% | post-emergence efficacy POLCO (Polygonum convolvulus [21]; 80 g/ha): 80% | post-emergence efficacy POLCO (Polygonum convolvulus [21]; 320 g/ha): 90% | post-emergence efficacy VIOTR (Viola tricolor [2]; 80 g/ha): 90% | post-emergence efficacy VIOTR (Viola tricolor [2]; 320 g/ha): 90% | post-emergence efficacy AMARE (Amaranthus retroflexus [14]; 80 g/ha): 90% | post-emergence efficacy AMARE (Amaranthus retroflexus [14]; 320 g/ha): 90% | post-emergence efficacy VERPE (Veronica persica [15]; 80 g/ha): 100% | post-emergence efficacy VERPE (Veronica persica [15]; 320 g/ha): 100% | post-emergence efficacy MATIN (Matricaria inodora [22]): 100% | post-emergence efficacy STEME (Stellaria media [3]; 80 g/ha): 100% | post-emergence efficacy STEME (Stellaria media [3]; 320 g/ha): 100% | ALOMY pre-emergence efficacy (herbicidal activity) (Alopecurus myosuroides [4]; Dosage 80 g/ha): 80% | ALOMY pre-emergence efficacy (herbicidal activity) (Alopecurus myosuroides [4]; Dosage 320 g/ha): 100% | PHBPU pre-emergence efficacy (herbicidal activity) (Ipomoea purpurea [5]; Dosage 320 g/ha): 90% | SETVI pre-emergence efficacy (herbicidal activity) (Setaria viridis [6]; Dosage 80 g/ha): 100% | SETVI pre-emergence efficacy (herbicidal activity) (Setaria viridis [6]; Dosage 320 g/ha): 100% | ABUTH pre-emergence efficacy (herbicidal activity) (Abutilon theophrasti [7]; Dosage 80 g/ha): 30% | ABUTH pre-emergence efficacy (herbicidal activity) (Abutilon theophrasti [7]; Dosage 320 g/ha): 100% | ECHCG pre-emergence efficacy (herbicidal activity) (Echinochloa crus-galli [8]; Dosage 80 g/ha): 90% | ECHCG pre-emergence efficacy (herbicidal activity) (Echinochloa crus-galli [8]; Dosage 320 g/ha): 90% | POLCO pre-emergence efficacy (herbicidal activity) (Polygonum convolvulus [9]; Dosage 80 g/ha): 90% | POLCO pre-emergence efficacy (herbicidal activity) (Polygonum convolvulus [9]; Dosage 320 g/ha): 90% | AVEFA pre-emergence efficacy (herbicidal activity) (Avena fatua): 80% | VIOTR pre-emergence efficacy (herbicidal activity) (Viola tricolor [16]; Dosage 80 g/ha): 80% | VIOTR pre-emergence efficacy (herbicidal activity) (Viola tricolor [16]; Dosage 320 g/ha): 100% | AMARE pre-emergence efficacy (herbicidal activity) (Amaranthus retroflexus [10]; Dosage 80 g/ha): 100% | AMARE pre-emergence efficacy (herbicidal activity) (Amaranthus retroflexus [10]; Dosage 320 g/ha): 100% | VERPE pre-emergence efficacy (herbicidal activity) (Veronica persica [17]; Dosage 80 g/ha): 100% | VERPE pre-emergence efficacy (herbicidal activity) (Veronica persica [17]; Dosage 320 g/ha): 100% | MATIN pre-emergence efficacy (herbicidal activity) (Matricaria inodora [11]; Dosage 80 g/ha): 100% | MATIN pre-emergence efficacy (herbicidal activity) (Matricaria inodora [11]; Dosage 320 g/ha): 100% | STEME pre-emergence efficacy (herbicidal activity) (Stellaria media [12]; Dosage 80 g/ha): 90% | STEME pre-emergence efficacy (herbicidal activity) (Stellaria media [12]; Dosage 320 g/ha): 100%
